Assays:
P. aeruginosa PAO1 = experiment: murine keratitis model, invasive strain (C57BL/6 mice); format: in vivo
Method: (§1) The inbred mice of C57BL/6 strain of both sexes in equivalent numbers were used for the research. 2-6 months old, adult female and adult male mice were purchased from the Vilnius University vivarium of laboratory animals. The animals throughout the period of the experiment were given standard chow and drinking water ad libitum. Animals were housed in the individual plastic cages in a 12 h light/dark cycle at 21-23° C. All regulated procedures on living animals were approved by The Lithuanian Ethics Committee of Biomedical Research (Protocol no. B1-442) and were carried out in accordance with the European Union legislation of OECD (directive 2010/63/EU). The experiments were carried out in Biological research center of Lithuanian University of Health Sciences.
(§2) For P. aeruginosa infection and keratitis induction the mice were anesthetized by Ketamine and Xylazine 90:9 mg/kg intraperitoneal injection. The cornea of the left eye of each mouse was visualized under a stereoscopic microscope, and three 1 mm scratches were made using a sterile 25 gauge needle. A 10 μL aliquot containing 4×10^6 cells of P. aeruginosa ATCC 19660 (cytotoxic strain) or PAO1 ATCC 15692 (invasive strain) was applied to the corneal surface. Depending on the experiment, the treatment was started 30 min or 6 h post infection. 10 μl aliquot containing 0.14 mg of tobramycin or 20 μg of S5-PmnH (both containing 0.5% hydroxypropyl methylcellulose (HPMC)) or PBS containing 0.5% HPMC was applied as one drop of substance to the each eye. HPMC is used as artificial tears and was used in order to thicken the tears film and prolong the presence of the applied product on the surface of the cornea. The treatment was continued for five days twice daily. Mice were euthanized by cervical dislocation 1, 3, 5 days post infection, and the eyeballs were collected and homogenized for viable bacteria count.
(§3) The eyes were examined and photographed with a dissection microscope equipped with a digital camera at 1, 3 and 5 dpi to monitor the disease progression. At 1, 3 and 5 dpi disease severity was visually graded by using an established corneal damage scale: 0, the pupil was partially or fully covered by clear or slight opacity; +1, the anterior segment was partially or fully covered by slight opacity; +2, the pupil was partially or fully covered by dense opacity; +3, the entire anterior segment was covered by dense opacity; and +4, corneal perforation^40.
(§4) Histopathology experiments were carried out at Lithuanian University of Health Sciences, Department of Veterinary Pathobiology of Veterinary Academy. One randomly chosen mice of each study group was used for histopathology experiments. Enucleated eyes were preserved in 10% formaldehyde. Eyes were paraffin-embedded, cut into 3-μm-thick sections, deparaffinised, rehydrated and used for preparation of hematoxylin/eosin stained samples.

P. aeruginosa ATCC 19660 = experiment: murine keratitis model, cytotoxic strain (C57BL/6 mice); format: in vivo
Method: as §1, §2, §3, §4

P. aeruginosa ATCC 27853 = experiment: murine lung colonization and treatment (CD1 mice); format: in vivo; settings: 5 h post infection
Method: CD1 male mice were supplied by Charles River (Margate, UK) and were specific pathogen free. Mice were 11 to 15 g on receipt at the facility and were allowed to acclimatize for at least 7 days.
P. aeruginosa ATCC 27853 was recovered from long-term storage (−80° C.) and cultured on cystine-lactose-electrolyte-deficient (CLED) agar at 37° C. under aerobic conditions for approximately 16-24 h. 20 ml of Mueller Hinton broth was inoculated with a single well isolated colony and cultured overnight at 37° C. with shaking at 300 rpm65. The overnight broth was diluted 1:100 in Mueller Hinton broth and 100 ml was cultured in a baffle flask for ˜6 h at 37° C. with shaking at 300 rpm until the broth OD was ˜0.6 (˜mid-exponential phase). 20 ml of culture was centrifuged at 2465 g for 10 minutes and washed in PBS. The pellet was suspended in PBS and the OD600 adjusted to 0.67 (˜2.6×10^8 CFU/ml). The study inoculum was prepared from this by appropriate dilution with PBS. The inoculum concentration was confirmed by quantitative culture on Pseudomonas Selective Agar (PSA). The inoculum concentration for the study was 1.47×10^7 CFU/ml (5.87×10^5 CFU/mouse).
Mice were infected under temporary inhaled 3% isoflurane anesthesia by intranasal (IN) instillation with 40 μl of the inoculum suspension split as 20 μl/nostril.
1 hour post infection 6 mice were sacrificed in order to evaluate the pre-treatment burden in lungs. Treatments were administered IN once at 1 h post infection (50 μl split to 25 μl/nares). Three treatment groups consisting of six mice each were administered S5-PmnH (2.5, 25 and 250 μg). The fourth group of mice (n=6) was administered 200 μg Tobramycin (40 mg/ml injection solution, Hospira UK Ltd, diluted 10 times). The study was terminated at 5 hours post infection for all animals. The clinical conditions and weights were assessed and animals were immediately euthanized using an overdose of pentobarbitone. Following confirmation of death, the lungs were excised and homogenized in ice cold sterile phosphate buffered saline using a Precellys bead beater. The homogenates were quantitatively cultured onto PSA agar and incubated at 37° C. for 24 hours before colonies were counted.

P. aeruginosa HP6 = experiment: agar disc-diffusion assay; format: cell-based; settings: strain HP6; 0.3, 3 and 30 μg of protein spotted on discs on CAA agar lawn, overnight
Method: (§5) Overnight P. aeruginosa cultures grown in CAA medium were equalized till OD595=1.0 in CAA and diluted 100×. Sterile cotton swab was briefly submerged in diluted microbial suspension, removing the excess of liquid by pressing it against the container wall. The swab was used for evenly streaking bacteria on plates containing growth medium with CAA solid agar (1.5%). 6 mm diameter sterile Whatman discs were placed on soft-agar and 0.3-30 μg of chimeric pyocins were spotted to paper disks. The plates were incubated overnight at 37° C. and bacteriocin inhibition zones were observed.
(§6) Next, all 25 P. aeruginosa strains were subjected to agar disc-diffusion assay by spotting different amounts of purified pyocin S5 (0.3 μg, 3 μg and 30 μg) on bacteria lawns. Six P. aeruginosa strains were resistant to pyocin S5. Four of these six strains were pyocin S5 and immunity protein-encoding strains—PA14, PAO1, […] and NCTC 13921. Two cystic fibrosis isolates, 12-35708 and 12-29165 were also completely resistant to pyocin S5, despite the absence of S5, or S5 immunity protein coding genes. […] Turbid inhibition zones were detected when 3 μg and 30 μg of S5 were spotted on the lawn of these strains (Table 1, FIG. 3).

P. aeruginosa A19 = experiment: agar disc-diffusion assay; format: cell-based; settings: strain A19; 0.3, 3 and 30 μg of protein spotted on discs on CAA agar lawn, overnight
Method: as §5, §6

P. aeruginosa HP40 = experiment: agar disc-diffusion assay; format: cell-based; settings: strain HP40; 0.3, 3 and 30 μg of protein spotted on discs on CAA agar lawn, overnight
Method: as §5, §6

P. aeruginosa Pr335 = experiment: agar disc-diffusion assay; format: cell-based; settings: strain Pr335; 0.3, 3 and 30 μg of protein spotted on discs on CAA agar lawn, overnight
Method: as §5, §6

P. aeruginosa NCTC 13921 = experiment: agar disc-diffusion assay; format: cell-based; settings: strain NCTC 13921; 0.3, 3 and 30 μg of protein spotted on discs on CAA agar lawn, overnight
Method: as §5, §6

[1] = tested on: P. aeruginosa Boston 41501 (ATCC 27853); experiment: agar disc-diffusion assay; format: cell-based; settings: strain Boston; 0.3, 3 and 30 μg of protein spotted on discs on CAA agar lawn, overnight
Method: as §5, §6

P. aeruginosa strains = experiment: agar disc-diffusion assay, panel of 25 strains; format: cell-based; settings: panel of 25 P. aeruginosa strains, in words
Method: as §5, §6

[2] = treatment started 30 min post infection

With `NC[C@H]1O[C@H](O[C@H]2[C@H](O)[C@@H](O[C@H]3O[C@H](CO)[C@@H](O)[C@H](N)[C@H]3O)[C@H](N)C[C@@H]2N)[C@H](N)C[C@@H]1O` [tobramycin, reference compound] the “histological examination of infected treated eyes” value (“histological examination” for short) (P. aeruginosa PAO1; 1 dpi) was “signs of acute inflammation of cornea”, the “histological examination” value (P. aeruginosa PAO1; 3 dpi) was “thinning of cornea epithelium and strong edema of the corneal stroma” and the “histological examination” value (P. aeruginosa PAO1; day 5) was “local inflammation of cornea, thinning and degeneration of cornea epithelium”. For the same molecule, the “average reduction of bacterial burden vs mock-treated” value (P. aeruginosa PAO1; treatment started 6 h post infection, 1 dpi) was 1.42 log 10 CFU/cornea, the “mice from which no viable bacteria were isolated” value (P. aeruginosa PAO1; treatment started 6 h post infection, 3 dpi, three mice per group) was “three” and the “viable bacteria in cornea, individual mice” value (P. aeruginosa PAO1; treatment started 6 h post infection, 5 dpi, mice with bacteria) was 2.8 log 10 CFU/cornea. The “mice from which no bacteria were isolated” value (P. aeruginosa PAO1; treatment started 6 h post infection, 5 dpi, three mice per group) was “two”, the “histopathology of infected treated eyes” value (P. aeruginosa ATCC 19660; [2]) was “Only weak oedema in the corneal stroma” and the “signs of disease (visual inspection, clinical score)” value (P. aeruginosa ATCC 19660; [2]) was “No signs of disease were observed in majority of samples”. The “viable bacteria isolated from infected eyes” value (P. aeruginosa ATCC 19660; treatment started 30 min post infection, twice daily, 1, 3 or 5 dpi, 20 μg S5-PmnH or 0.14 mg tobramycin per eye) was “no viable P. aeruginosa were isolated”, the viable bacteria isolated (P. aeruginosa ATCC 19660; treatment started 6 h post infection, 1, 3 or 5 dpi) was “no viable bacteria were isolated” and the clinical score evaluation (P. aeruginosa ATCC 19660; treatment started 6 h post infection, 1 and 3 dpi, two S5-PmnH-treated and one tobramycin-treated mice) was “Only mild disease signs were observed”. The “histopathology of infected treated eyes” value (P. aeruginosa ATCC 19660; treatment started 6 h post infection, 3 and 5 dpi) was “slight thickening of epithelium”, the clinical score evaluation (P. aeruginosa ATCC 19660; treatment started 6 h post infection, 5 dpi) was “all corneas were completely clear” and the “reduction of lung burden vs vehicle” value (P. aeruginosa ATCC 27853; 200 μg/mouse IN once 1 h post infection) was 2.75 log10 CFU/g. For the same molecule, the “reduction of burden below the level of stasis (pre-treatment)” value (P. aeruginosa ATCC 27853; 200 μg/mouse IN once) was 1.23 log10 CFU/g.

B1: S5-Pflu794: chimeric bacteriocin SEQ ID NO: 17: pyocin S5 first segment fused to P. fluorescens Pflu794 killing domain (protein)
chain: MSNDNEVPGSMVIVAQGPDDQYAYEVPPIDSAAVAGNMFGDLIQREIYLQKNIYYPVRSIFEQGTKEKKEINKKVSDQVDGLLKQITQGKREATRQERVDVMSAVLHKMESDLEGYKKTFTKGPFIDYEKQSSLSIYEAWVKIWEKNSWEERKKYPFQQLVRDELERAVAYYKQDSLSEAVKVLRQELNKQKALKEKEDLSQLERDYRTRKANLEMKVQSELDQAGSALPPLVSPTPEQWLERATRLVTQAIADKKQLQTTNNTLIKNSPTPLEKQKAIYNGELLVDEIASLQARLVKLNAETTRRRTEKASDQANNVDIEEAILFTTTFYENLTEKYGEKVSAVAKELAESAKGKTMRSSKEALQTFEKYKDTYNGRFRSRDRREVDRALKSLDKELLSKNLAKFSKAFGSVSKIGDLTEVFIELENSIRTGDWKPLLLTLEGIGLGMAGTYLVAAVFGISATTPLGIVVFAVLMAATSAYIDDDLVKKVNKDLFGF
modifications: S5-Pflu794
In the case of B1, the “Activity in agar disc-diffusion assay” value (P. aeruginosa HP6) is reported as “* (activity detected only with 30 μg of protein)”, the “Activity in agar disc-diffusion assay” value (P. aeruginosa A19) is reported as “*** (activity detected with 0.3 μg of protein)” and the “Activity in agar disc-diffusion assay” value (P. aeruginosa HP40) is reported as “* (activity detected only with 30 μg of protein)”. The “Activity in agar disc-diffusion assay” value (P. aeruginosa Pr335) was “** (activity detected with 3 μg of protein)”, the “Activity in agar disc-diffusion assay” value (P. aeruginosa NCTC 13921) was “* (activity detected only with 30 μg of protein)” and the “Activity in agar disc-diffusion assay” value [1] was “* (activity detected only with 30 μg of protein)”. For the same molecule, the “activity spectrum / profile in agar disc diffusion assay” value (P. aeruginosa strains) was “only week activity on 6 tested strains”.
